# Calls of active or inactive are those of the source. No cut-off for these calls is given here.
# Experiments:
# [1] = Solubility of the compound; assay type: physicochemical
# [2] = Inhibition of Human rhinovirus 2 purified 3C protease preincubated for 30 mins measured after 1 hrs by FRET assay; design: species or system rhinovirus A2
# rhinovirus A2 [3] = assay: Inhibition of Human rhinovirus 2 purified 3C protease at 100 uM preincubated for 30 mins measured after 1 hrs by FRET assay
# [4] = Binding affinity to Human rhinovirus 2 purified 15N-labeled 3C protease after 50 mins by NMR assay; design: species or system rhinovirus A2
# rhinovirus A2 [5] = assay: Binding affinity to Human rhinovirus 2 purified 15N-labeled 3C protease at 500 uM after 50 mins by NMR assay
SMILES,pIC50 [2],inhibition (rhinovirus A2 [3]) [%],pKd [4],other results
O=c1cc(-c2cccnc2)[nH]c2cc(Cc3ccccc3)ccc12,5,100,,solubility [1]: 1 µM
CC(=O)c1ccc2[nH]c(-c3cccnc3)cc(=O)c2c1,,25,,
Cc1cc2[nH]c(-c3ccccc3)cc(=O)n2n1,,43,,solubility [1]: > 900 µM
COc1ccc2c(=O)cc(-c3cccnc3)[nH]c2c1,,< 10,,
Cn1c(-c2ccccc2)cc(=O)c2ccccc21,,,3,
O=c1cc(-c2cccnc2)[nH]c2cc(C(O)c3ccccc3)ccc12 (racemic),4.7,80,,
CNC(=O)c1ccc2c(=O)cc(-c3cccnc3)[nH]c2c1,,40,,
CCOC(=O)CCc1ccc2[nH]c(-c3cccnc3)cc(=O)c2c1,,0,,Activity (rhinovirus A2 [5]): inactive
Nc1cc(-c2ccccc2)nc2ccccc12,,,3,
CCOC(=O)/C=C/c1ccc2[nH]c(-c3cccnc3)cc(=O)c2c1,5.3,> 90,,
O=c1cc(-c2cccnc2)[nH]c2ccccc12,,35,3.5,solubility [1]: > 1300 µM
Oc1cc(-c2ccccc2)nc2ccccc12,,,3.7,solubility [1]: 100 µM
N#Cc1ccc2[nH]c(-c3cccnc3)cc(=O)c2c1,4,50,,
c1ccc(-c2ccc3ccccc3n2)cc1 [2-PHENYLQUINOLINE],,,< 3,
O=c1cc(-c2ccccc2)oc2ccccc12 [FLAVONE],,,3,
CNC(=O)Cc1ccc2c(=O)cc(-c3cccnc3)[nH]c2c1,,45,,
Cc1ccc2c(=O)cc(-c3cccnc3)[nH]c2c1,,40,,
O=C(O)/C=C/c1ccc2[nH]c(-c3cccnc3)cc(=O)c2c1,4.2,70,,
O=Cc1ccc2[nH]c(-c3cccnc3)cc(=O)c2c1,6,> 95,,
COc1cc(-c2ccccc2)nc2ccccc12,,,< 3,

# From ChEMBL document CHEMBL1641450, “Non-covalent inhibitors of rhinovirus 3C protease” (Bioorg Med Chem Lett, 2011)
